Values quoted from earlier work, collected in patent US20220125818A1, “COMPOSITIONS AND METHODS FOR TREATMENT OF A CORONAVIRUS DISEASE (COVID-19) INFECTION” (priority 2020, published 2022).

Biological target: T1, COX-1 (Homo sapiens, UniProt P23219)
T1 construct: endogenous in cells; host or cells: platelets (in vivo)
Conditions: average platelet lifespan

T1 sequence (P23219 24-599): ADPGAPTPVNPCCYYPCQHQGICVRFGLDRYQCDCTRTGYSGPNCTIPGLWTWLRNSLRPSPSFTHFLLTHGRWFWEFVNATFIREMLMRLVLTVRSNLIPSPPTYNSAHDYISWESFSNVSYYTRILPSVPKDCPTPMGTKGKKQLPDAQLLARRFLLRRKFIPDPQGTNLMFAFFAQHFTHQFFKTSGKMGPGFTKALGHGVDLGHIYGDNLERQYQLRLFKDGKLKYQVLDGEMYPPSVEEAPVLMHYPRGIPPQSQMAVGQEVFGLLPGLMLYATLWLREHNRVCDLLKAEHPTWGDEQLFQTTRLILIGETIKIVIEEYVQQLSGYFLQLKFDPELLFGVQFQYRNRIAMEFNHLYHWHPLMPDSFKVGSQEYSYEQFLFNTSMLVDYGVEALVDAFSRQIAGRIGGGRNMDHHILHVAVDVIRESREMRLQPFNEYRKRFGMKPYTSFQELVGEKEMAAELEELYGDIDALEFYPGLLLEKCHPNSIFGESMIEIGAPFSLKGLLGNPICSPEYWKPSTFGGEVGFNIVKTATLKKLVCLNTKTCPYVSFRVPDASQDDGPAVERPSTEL

For CC(=O)Oc1ccccc1C(=O)O [Aspirin®, Acetylsalicylic acid], the “duration of inhibition of platelet aggregation” value is listed as 7 to 10 days.
